What follows are compounds tested against T1, endogenous PIP4K2C C-terminally tagged with HiBiT peptide in MOLT-4 cells (Homo sapiens, UniProt Q8TBX8) (assay: HiBiT PIP4K2C degradation assay in MOLT-4 cells). Conditions: 24 hours, 10-point dose response, top concentration 10 micromolar, read-out: HiBIT-degradation MOLT4 PIP4k2C 24 hours DC50.
T1 construct: to C-terminally tag endogenous PIP4K2C with HiBiT peptide; host or cells: MOLT-4 (CRISPR-Cas9 knock-in clone)
T1 sequence (Q8TBX8 1-421): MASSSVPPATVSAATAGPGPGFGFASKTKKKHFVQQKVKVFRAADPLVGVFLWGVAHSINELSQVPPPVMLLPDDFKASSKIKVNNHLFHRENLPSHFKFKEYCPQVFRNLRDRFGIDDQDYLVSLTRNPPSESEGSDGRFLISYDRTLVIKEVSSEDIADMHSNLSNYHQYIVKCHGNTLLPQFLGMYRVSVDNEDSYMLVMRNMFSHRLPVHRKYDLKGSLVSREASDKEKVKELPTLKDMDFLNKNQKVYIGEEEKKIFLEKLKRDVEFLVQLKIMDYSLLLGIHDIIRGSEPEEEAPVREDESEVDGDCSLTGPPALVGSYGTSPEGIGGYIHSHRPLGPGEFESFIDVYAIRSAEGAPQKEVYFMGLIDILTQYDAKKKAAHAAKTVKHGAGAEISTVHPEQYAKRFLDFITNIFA
Type: cell-based
Experimental: Following clonal selection, genotype was confirmed by Sanger sequencing. […] Nano-Glo® HiBiT Lytic Assay System was purchased from Promega (Madison, WI, Catalog number N3030). Cell culture flasks and 384-well microplates were purchased from Corning (Glendale, AZ).
To study PIP4K2C degradation, 384-well plates were plated with a 10-point dose response curve, 3-fold dilution, in duplicate with a top starting concentration of 10 micromolar. Subsequently 22,500 cells were added to each well and incubated at 37C in 5% CO2 for 24 hours. At the end of the incubation time, cells were treated with the Nano-Glo® HiBiT Lytic Detection System following the manufacturer's instructions. Luminescence was measured with a PHERAstar FSX plate reader (BMG Labtech, Cary, NC). The Levenberg-Marquardt algorithm was used to fit a Hill equation to dose-response data to calculate DC50 values (see Table 6).

SMILES | DC50 [µM]
O=C1CCC(Nc2ccc(C3CCN(CC(=O)N4CCC5(CC4)CCN(c4cncc(Nc6ncc(Cl)c(-c7cccc(C8CC8)c7)n6)c4)C5=O)CC3)cc2)C(=O)N1 (stereo not drawn) [Compound 206, 3-[4-[1-[2-[2-[5-[[5-chloro-4-(3-cyclopropylphenyl)pyrimidin-2-yl]amino]-3-pyridyl]-1-oxo-2,8-diazaspiro[4.5]decan-8-yl]-2-oxo-ethyl]-4-piperidyl]anilino]piperidine-2,6-dione] | < 0.5
O=C1CCC(N2Cc3cc(C4CCN(C(=O)CN5CCC6(CC5)CCN(c5cncc(Nc7ncc(Cl)c(-c8cccc(C9CC9)c8)n7)c5)C6=O)CC4)ccc3C2=O)C(=O)N1 (stereo not drawn) [Compound 198, 3-(5-(1-(2-(2-(5-((5-chloro-4-(3-cyclopropylphenyl)pyrimidin-2-yl)amino)pyridin-3-yl)-1-oxo-2,8-diazaspiro[4.5]decan-8-yl)acetyl)piperidin-4-yl)-1-oxoisoindolin-2-yl)piperidine-2,6-dione] | < 0.5
O=C1CCC(N2Cc3cc(OCCCCCCCN4CCC5(CC4)CCN(c4cncc(Nc6ncc(Cl)c(-c7cccc(-c8ccccc8)c7)n6)c4)C5=O)ccc3C2=O)C(=O)N1 (stereo not drawn) [Compound 54, 3-(5-((7-(2-(5-((4-([1,1′-biphenyl]-3-yl)-5-chloropyrimidin-2-yl)amino)pyridin-3-yl)-1-oxo-2,8-diazaspiro[4.5]decan-8-yl)heptyl)oxy)-1-oxoisoindolin-2-yl)piperidine-2,6-dione] | < 0.5
O=C1CCC(N2Cc3c(OCCCCCCCC(=O)N4CCC5(CC4)CCN(c4cncc(Nc6ncc(Cl)c(-c7cccc(-c8ccccc8)c7)n6)c4)C5=O)cccc3C2=O)C(=O)N1 (stereo not drawn) [Compound 70, 3-(4-((8-(2-(5-((4-([1,1′-biphenyl]-3-yl)-5-chloropyrimidin-2-yl)amino)pyridin-3-yl)-1-oxo-2,8-diazaspiro[4.5]decan-8-yl)-8-oxooctyl)oxy)-1-oxoisoindolin-2-yl)piperidine-2,6-dione] | < 0.5
O=C1CCC(N2Cc3cc(OCCCCCCCCCCN4CCC5(CC4)CCN(c4cncc(Nc6ncc(Cl)c(-c7cccc(-c8ccccc8)c7)n6)c4)C5=O)ccc3C2=O)C(=O)N1 (stereo not drawn) [Compound 52, 3-(5-((10-(2-(5-((4-([1,1′-biphenyl]-3-yl)-5-chloropyrimidin-2-yl)amino)pyridin-3-yl)-1-oxo-2,8-diazaspiro[4.5]decan-8-yl)decyl)oxy)-1-oxoisoindolin-2-yl)piperidine-2,6-dione] | 0.5 to 1
O=C1CCC(N2Cc3cc(C4CCN(C(=O)CN5CCC(C(=O)Nc6cncc(Nc7ncc(Cl)c(-c8cccc(C9CC9)c8)n7)c6)CC5)CC4)ccc3C2=O)C(=O)N1 (stereo not drawn) [Compound 196, N-(5-((5-chloro-4-(3-cyclopropylphenyl)pyrimidin-2-yl)amino)pyridin-3-yl)-1-(2-(4-(2-(2,6-dioxopiperidin-3-yl)-1-oxoisoindolin-5-yl)piperidin-1-yl)-2-oxoethyl)piperidine-4-carboxamide] | < 0.5
O=C1CCC(Nc2ccc(N3CCC(CCN4CCC5(CC4)CCN(c4cncc(Nc6ncc(Cl)c(N7CCCCC7)n6)c4)C5=O)CC3)cc2)C(=O)N1 (stereo not drawn) [Compound 173, 3-((4-(4-(2-(2-(5-((5-chloro-4-(piperidin-1-yl)pyrimidin-2-yl)amino)pyridin-3-yl)-1-oxo-2,8-diazaspiro[4.5]decan-8-yl)ethyl)piperidin-1-yl)phenyl)amino)piperidine-2,6-dione] | < 0.5
O=C1CCC(Nc2ccc(N3CCC(CC(=O)N4CCC5(CC4)CCN(c4cncc(Nc6ncc(Cl)c(N7CCCCC7)n6)c4)C5=O)CC3)cc2)C(=O)N1 (stereo not drawn) [Compound 168, 3-((4-(4-(2-(2-(5-((5-chloro-4-(piperidin-1-yl)pyrimidin-2-yl)amino)pyridin-3-yl)-1-oxo-2,8-diazaspiro[4.5]decan-8-yl)-2-oxoethyl)piperidin-1-yl)phenyl)amino)piperidine-2,6-dione] | < 0.5
O=C1CCC(N2Cc3cc(NCCCCCC(=O)N4CCC5(CC4)CCN(c4cncc(Nc6ncc(Cl)c(-c7cccc(-c8ccccc8)c7)n6)c4)C5=O)ccc3C2=O)C(=O)N1 (stereo not drawn) [Compound 82, 3-(5-((6-(2-(5-((4-([1,1′-biphenyl]-3-yl)-5-chloropyrimidin-2-yl)amino)pyridin-3-yl)-1-oxo-2,8-diazaspiro[4.5]decan-8-yl)-6-oxohexyl)amino)-1-oxoisoindolin-2-yl)piperidine-2,6-dione] | < 0.5
O=C1CCC(N2Cc3cc(OC4CCN(C(=O)CN5CCC(C(=O)Nc6cncc(Nc7ncc(Cl)c(-c8cccc(C9CC9)c8)n7)c6)CC5)CC4)ccc3C2=O)C(=O)N1 (stereo not drawn) [Compound 201, N-(5-((5-chloro-4-(3-cyclopropylphenyl)pyrimidin-2-yl)amino)pyridin-3-yl)-1-(2-(4-((2-(2,6-dioxopiperidin-3-yl)-1-oxoisoindolin-5-yl)oxy)piperidin-1-yl)-2-oxoethyl)piperidine-4-carboxamide] | < 0.5
O=C1CCC(N2Cc3c(OCCCCCCCCC(=O)N4CCC5(CC4)CCN(c4cncc(Nc6ncc(Cl)c(-c7cccc(-c8ccccc8)c7)n6)c4)C5=O)cccc3C2=O)C(=O)N1 (stereo not drawn) [Compound 71, 3-(4-((9-(2-(5-((4-([1,1′-biphenyl]-3-yl)-5-chloropyrimidin-2-yl)amino)pyridin-3-yl)-1-oxo-2,8-diazaspiro[4.5]decan-8-yl)-9oxononyl)oxy)-1-oxoisoindolin-2-yl)piperidine-2,6-dione] | < 0.5
O=C1CCC(Nc2ccc(N3CCC(CC(=O)N4CCC5(CC4)CCN(c4cncc(Nc6ncc(Cl)c(N7CCC[C@@H](O)C7)n6)c4)C5=O)CC3)cc2)C(=O)N1 (stereo partly drawn) [Compound 176, 3-((4-(4-(2-(2-(5-((5-chloro-4-((R)-3-hydroxypiperidin-1-yl)pyrimidin-2-yl)amino)pyridin-3-yl)-1-oxo-2,8-diazaspiro[4.5]decan-8-yl)-2-oxoethyl)piperidin-1-yl)phenyl)amino)piperidine-2,6-dione] | < 0.5
O=C(CCCOc1cccc2c1C(=O)N(C1CCC(=O)NC1=O)C2=O)NCCCCCCCC(=O)Nc1cncc(Nc2ncc(Cl)c(-c3cccc(-c4ccccc4)c3)n2)c1 (stereo not drawn) [Compound 81, N-(5-((4-([1,1′-biphenyl]-3-yl)-5-chloropyrimidin-2-yl)amino)pyridin-3-yl)-8-(4-((2-(2,6-dioxopiperidin-3-yl)-1,3-dioxoisoindolin-4-yl)oxy)butanamido)octanamide] | < 0.5
O=C1CCC(N2Cc3cc(OCCCCCCCCC(=O)N4CCC5(CC4)CCN(c4cncc(Nc6ncc(Cl)c(-c7cccc(-c8ccccc8)c7)n6)c4)C5=O)ccc3C2=O)C(=O)N1 (stereo not drawn) [Compound 62, 3-(5-((9-(2-(5-((4-([1,1′-biphenyl]-3-yl)-5-chloropyrimidin-2-yl)amino)pyridin-3-yl)-1-oxo-2,8-diazaspiro[4.5]decan-8-yl)-9-oxononyl)oxy)-1-oxoisoindolin-2-yl)piperidine-2,6-dione] | < 0.5
O=C1CCC(N2Cc3cc(OCCCCCCC(=O)N4CCC5(CC4)CCN(c4cncc(Nc6ncc(Cl)c(-c7cccc(-c8ccccc8)c7)n6)c4)C5=O)ccc3C2=O)C(=O)N1 (stereo not drawn) [Compound 64, 3-(5-((7-(2-(5-((4-([1,1′-biphenyl]-3-yl)-5-chloropyrimidin-2-yl)amino)pyridin-3-yl)-1-oxo-2,8-diazaspiro[4.5]decan-8-yl)-7-oxoheptyl)oxy)-1-oxoisoindolin-2-yl)piperidine-2,6-dione] | < 0.5

— patent US20260184691A1, “INHIBITORS AND DEGRADERS OF PIP4K PROTEIN” (Larkspur Biosciences, Inc., priority 2022, published 2026)
